This is an account of results in US9616037B2, “Aryl-phenyl-sulfonamido-cycloalkyl compounds and their use” (PIMCO 2664 Limited, priority 2008, dated 2017).

As a reminder, the solubility is how much of the substance goes into solution per volume. In general, half-life refers to the time needed for the level to fall by half in the phase considered. In general, bioavailability refers to the share of a dose that reaches the circulation, judged against a reference dose that is usually intravenous. Read a low bioavailability as little systemic uptake.

SMILES strings stand for the structures. Values after ≈ are worked out from the molar mass of the structure shown.

The nature of series [1]: Thermodynamic aqueous solubility in fasted state simulated intestinal fluid (FaSSIF). The format is physicochemical. The settings on record: pH 6.5, thermodynamic from solid, equilibrated at 25° C. for 24 hours, HPLC.
Series [2] is described as follows: In vivo pharmacokinetics study, oral and intravenous dosing. The following applies: rat, 1 mg/kg; for half-life / bioavailability: male, Sprague-Dawley, plasma; for bioavailability: oral. Here is the method:
Absorption and metabolic stability were studied using an in vivo pharmacokinetics assay. Drug levels were assessed using ultra-performance LC/TOF-MS.
Three male Sprague-Dawley rats, 200-300 g, were dosed per route. Test compound was administered either orally or intravenously (dose level of 1 mg/kg body weight). Test compound was formulated in 50:50 tetraethylene glycol:PBS for both routes. Animals were given free access to food throughout the study. On the day prior to dosing, the carotid artery was cannulated for sample collection and for the intravenous study the jugular vein was cannulated to enable dosing.
Blood samples were taken from the carotid artery at the following time points and placed in heparinised tubes: • Oral dosing—predose, 0.25, 0.5, 1, 2, 4, 8 and 24 hours post dose. • IV dosing—predose, 0.08, 0.25, 0.5, 1, 2, 4 and 8 hours post dose.
Blood samples were centrifuged to obtain plasma, which was transferred to a separate container and frozen at −20° C.
The supernatants were collected for analysis. The standard samples were prepared similarly, after spiking blank rat plasma samples to study compound concentrations at 1, 2, 5, 10, 20, 50, 100, 200, 500 and 1000 ng/mL. In addition, extra samples were prepared from 0-1 hour i.v. samples by diluting 1/20 with 50% aqueous acetonitrile to avoid exceeding the linear range of the analytical method.
A Waters Acquity liquid ultra-performance chromatographic system (Waters Corp., Milford, Mass., USA) with autosampler, vacuum degasser and column oven was used. The analytical column used for all compounds was a Waters BEH C18, (2.1×50 mm, 1.7 μm, Waters Corp, Milford, Mass., USA) together with a 0.2 μm on-line filter before the column. The eluents were 0.1% acetic acid (A, pH 3.2) and methanol (B). Gradient elution from 5% to 60% B in two minutes was employed, followed by one minute gradient to 90% B and column equilibration. The flow rate was 0.5 mL/min and the column oven temperature was 35° C. The flow was directed to the MS via Water Acquity photo-diode-array (PDA) detector. LC/TOF-MS data were recorded with a Micromass LCT Premier XE time-of-flight (TOF) mass spectrometer (Micromass Ltd., Manchester, England) equipped with a LockSpray electrospray ionization source. A positive ionization mode of electrospray was used for all compounds. The mass range of m/z 100-900 was acquired. The W-option of the reflector was used, and the DRE (dynamic range enhancement) option was set to on. The mass spectrometer and HPLC system were operated under Micromass MassLynx 4.1 software. […] Masslynx 4.1 software was used for controlling the instrumentation and for data processing.
The pharmacokinetic parameters for the test compounds were calculated by WinNonlin Pro (Pharsight Corp, CA) using standard noncompartmental methods. The elimination phase half-life (t1/2) was calculated by least-squares regression analysis of the terminal linear part of the log concentration—time curve. The area under the plasma concentration—time curve (AUC) was determined by use of the linear trapezoidal rule up to the last measurable concentration and thereafter by extrapolation of the terminal elimination phase to infinity.

For series [3], the system named is caspase 3. Description: Caspase induction study (Nucview488 fluorogenic substrate) in the presence of TNFα. It counts as cell-based. The settings on record: human monocytes, 10 μM test compound, 10 ng/mL TNFα, Nucview488 stain. Here is the method: The ability to activate caspase 3 was studied using a fluorogenic enzyme substrate assay.
Briefly, human primary monocytes were isolated from whole blood using Ficoll gradients. The resulting cells were plated into microwell plates for 24 hours after which non-adherent cells were removed by washing. Cells were differentiated in the presence of 100 ng/mL MCSF. Cells were pre-treated with 10 μM test compound for 1 hour prior to stimulation with 10 ng/mL TNFα. Caspase 3 activation as an indicator of apoptosis was detected using the Nucview488 stain, which was added one hour prior to visualisation. The Nucview488 stain indicates the activation of caspase 3 (CPP32, apopain, YAMA), a cysteine peptidase which plays a key role in the induction of apoptosis in individual whole mammalian cells. Essentially, Nucview488 consists of a fluorogenic DNA dye and a DEVD substrate moiety specific for caspase 3. In itself, Nucview488 is nonfluorescent. However, upon entering the cell cytoplasm, Nucview488 is cleaved by caspase 3 to form a high-affinity DNA dye. The released DNA dye migrates to the cell nucleus to stain the nucleus bright green. This fluorescent staining produced in response to caspase 3 activity is monitored using fluorescent light microscopy.

In series [1], `O=S(=O)(N[C@H]1CC[C@@H](CO)CC1)c1ccc(-c2ccc(F)cc2F)cc1` [ABD781, 2′,4′-Difluoro-N-(cis-4-(hydroxymethyl)cyclohexyl)biphenyl-4-sulfonamide] showed a solubility at 24 h of 590 µg/mL (≈ 1550 µM). Also, the half-life in series [2] (iv) is 0.87 h; in series [2] (po), 3.28 h. In series [2], this compound showed a bioavailability of 43%. Also, the AUC in series [2] (i.v.) amounted to 22400 ng/mL/min; in series [2] (p.o.), 9600 ng/mL/min. In addition, the “caspase 3 activation (fluorescence detected by light microscopy)” value in series [3] is reported as “significant activation of caspase 3”.

Compound `O=S(=O)(N[C@H]1CC[C@@H](CO)C1)c1ccc(-c2ccc(F)cc2F)cc1` [ABD773, 2′,4′-Difluoro-N-((1 S,3R)-3-(hydroxymethyl)cyclopentyl)biphenyl-4-sulfonamide] registered a solubility at 24 h in series [1] of 890 µg/mL (≈ 2420 µM). Further, the half-life in series [2] (iv) is 0.81 h; in series [2] (po), 3.17 h. In series [2], this compound gave a bioavailability of 13%. For the same compound, the AUC in series [2] (i.v.) amounted to 11900 ng/mL/min; in series [2] (p.o.), 1500 ng/mL/min.
